Assay results from patent US20260315596A1, “HYBRID NANOPARTICLES AS MULTIFUNCTIONAL PLATFORM FOR BRAIN TUMOR THERAPY” (UNIVERSIDADE DE COIMBRA, priority 2022, published 2026).
Like-named read-outs stand apart in the source and are kept apart here.

Tests used:
[1] = system: U87 cells; test: Resazurin cytotoxicity assay in U87 / glioma cells; assay type: cell-based, human; conditions: for IC50: all glioma cells, 24 hours and 72 hours
Experimental: In vitro toxicity studies were performed as described in Example 4. To assess the potential cytotoxicity of both loaded and unloaded NPs, the resazurin assay was conducted in HBMEC and U87 cells. The sensitivity of GB cells to free CXB and TMZ was assessed following a treatment with a drug solution in the range 7-1700 μM and 5-2500 μM, respectively.
The cytotoxicity effect of AuNRs^c(RGDfK) and HNPs/HNPs^Tf against U87 cells. Regarding cell viability, the U87 cells were cultured in DMEM/F-12 medium, supplemented with 10% (v/v) FBS, 1% (v/v) penicillin-streptomycin solution and sodium bicarbonate. U87 were maintained at 37° C. in a humidified atmosphere containing CO2 (5%). The resazurin assay was used to determine the cytotoxicity of CXB, AuNRs^c(RGDfK) and HNPs. Briefly, 2000 cells per well were seeded in a 96 well plate and incubated for 24 hours or 72 hours after the medium was replaced with increasing concentrations of CXB or AuNRs^c(RGDfK) or HNPs/HNPS^Tf. Subsequently, the medium was removed, and the cell viability determined. For this purpose, 100 μl of 10% (w/v) resazurin solution in DMEM/F 12 was added to the cells and incubated for approximately 2 hours, at 37° C. The enzymatic reduction of resazurin to resorufin was analyzed by UV/Vis spectrophotometry at 570 nm and 600 nm. Cell viability was assessed as described above.

[2] = Pharmacokinetics and biodistribution in mice after i.p. administration; assay type: in vivo, Swiss nude mice; set-up: AUCinf: concentration or dose not given beside the values
Experimental: Adult male and female Swiss Nu/Nu and Swiss Nu/+ mice, aged between 10-14 weeks and weighting 22-30 g, were purchased from Charles River Laboratories (Lyon, France) and maintained in local animal facilities under controlled conditions (12 hours light/dark cycle, at 20±2° C. and 50±5% of relative humidity), with free access to standard diet and water. All animal experiments were conducted in agreement with the international regulations of the European Union.
A solution containing CXB in PEG 400: NaCl 0.9% (pH=7.4) (2:1, V/V) was used as control. Thereafter, mice were sacrificed by decapitation at predetermined post-dosing time points. Blood samples were collected to heparinised tubes and centrifuged at 2880 g for 10 min at 4° C. Plasma supernatant was collected and frozen at −80° C. until analysis. […] Brain and liver tissues were homogenized with an H2O-acetonitrile (1:1, V/V) solution (4 mL per g of tissue) using a Thomas® Teflon pestle tissue homogenizer and centrifuged at 4 150 g for 15 min at 4° C. In parallel, spleen tissues were homogenized with 1 ml of the same solution using a high-speed stirrer (Ultra-Turrax X1020, Ystral GmbH, Dottingen, Germany) and then, centrifuged at 12 045 g for 5 min at 4° C. All supernatants were collected and stored at −80° C. until analysis using a previously validated HPLC method. […]

[3] = system: orthotopic U87 human GB tumor; test: In vivo antitumor efficacy in orthotopic U87 glioblastoma model; set-up: species or system human tumor in Swiss nude mice
Experimental: Regarding orthotopic U87 human GB tumor model, before the surgical procedure, fourteen nude mice were weighted, given buprenorphine (0.1 mg/Kg) intraperitoneally and placed on a stereotactic frame. To maintain anesthesia and sedation, the mice were anesthetized for 30 min with 4% isoflurane gas, mixed with medical oxygen at a rate of 1 L/min. Vital signs such as respiratory frequency and body temperature were monitored continuously. After the identification of the injection site, at the Cartesian coordinates (x, y, z)=(2.1, 0.5, −3) in relation to bregma, approximately 36 000 U87 cells were injected in the striatum of the frontal cortex of the right hemisphere of the brain, using a Hamilton syringe. In every mouse, the presence, location and volume of the tumors were assessed by Magnetic Resonance Imaging (MRI) weekly. MRI was performed using a 9.4T Bruker BioSpec 94/20USR system (Bruker, Germany) after anesthetizing mice with isoflurane (1 L/min, induction: 4% isoflurane; maintenance: 2% isoflurane). Vital signs, in particular, respiratory frequency and body temperature, were monitored continuously. For structural analysis, T2-weighted images were acquired in sagittal, coronal and axial planes, using a rapid acquisition with relaxation enhancement sequence (T2 Turbo RARE). Tumor images were manually segmented in the 3D Slicer software for 3D reconstruction, in order to calculate tumor volume.
Similarly, to the safety evaluation test, all animals were closely observed during the immediate post injection period. Mice physical appearance (body weight and coat condition), body function (food intake), presence of loose stools, diarrhea or blood in diarrhea and behavior (handling, aggression, abnormal gait and posture and reluctance to move) were also monitored throughout the study. Pre-determined human endpoints for animal euthanasia were also established, specifically, a weight loss greater than 20% of initial body weight, a temperature drop (<35° C.), and a tumor size higher than 50 mm^3. […]
The tumor growth delayed (TGD), which concerns the evaluation of tumor treatment modalities, was calculated according to
where, Dtreatment and Dcontrol correspond to the average doubling times of the treated and control tumors, respectively.
The tumor growth inhibition (TGI), which measures the tumor size between treated and control groups at specific time points was calculated according to
[formula] • where ΔT (=T−T0) represents the change in tumor size (volume) for the treated animals, while ΔC(=C−C0) represents the change in tumor size (volume) for the control animals. By comparing these values, the degree of tumor growth inhibition can be determined.

[4] = Safety and tolerability in mice; set-up: species or system Swiss nude mice; conditions: mouse, in vivo
Experimental: The dose used for temozolomide was 30 mg/kg (i.p administration) and 50 mg/kg (oral administration), as the upper threshold tolerated by animals. The treatment started 21 days after U87 cell implantation.
To understand the drug effect: At 21 days post-tumor cell injection, mice were randomly divided into six groups and treated intraperitoneally for two cycles of five consecutive days. […] Similarly, to the safety evaluation test, all animals were closely observed during the immediate post injection period. Mice physical appearance (body weight and coat condition), body function (food intake), presence of loose stools, diarrhea or blood in diarrhea and behavior (handling, aggression, abnormal gait and posture and reluctance to move) were also monitored throughout the study. Pre-determined human endpoints for animal euthanasia were also established, specifically, a weight loss greater than 20% of initial body weight, a temperature drop (<35° C.), and a tumor size higher than 50 mm^3.

[5] = Serum biomarkers for toxicity evaluation in glioblastoma-bearing mice; assay type: in vivo, Swiss nude mice; conditions: free drug in solution
Experimental: After reaching the endpoint, animals were euthanized. Whole blood samples were collected from mice immediately to heparinized tubes. The supernatant (serum) of blood obtained after centrifugation (2880×g for 10 min at 4° C.) was used to determine the levels of physiological biomarkers such as aspartate aminotransferase (AST), alanine aminotransferase (ALT), alkaline phosphatase (ALP), gamma glutamyl transpeptidase (GGT), creatinine kinase (CK), and urea (U) to investigate the effects of drug, nanoparticles and photothermal treatment.

[6] = system: glioblastoma; conditions: cited from earlier work
[7] = celecoxib, i.p. mice, plasma, 20 mg/kg
[8] = mouse, ip, 20 mg/kg, celecoxib, i.p. mice, brain
[9] = mouse, ip, 20 mg/kg, celecoxib, i.p. mice, kidney
[10] = mouse, ip, 20 mg/kg, celecoxib, i.p. mice, liver
[11] = mouse, ip, 20 mg/kg, celecoxib, i.p. mice, plasma
[12] = mouse, ip, 20 mg/kg, celecoxib, i.p. mice, spleen
[13] = i.p., no irradiation (TMZ 30 mg/kg, CXB 5 mg/kg, nanoparticles 20 mg/kg)
[14] = i.p., no irradiation (TMZ 30 mg/kg, CXB 5 mg/kg, nanoparticles 20 mg/kg), listed as temozolomide
[15] = oral, 50 mg/kg, listed as temozolomide

With `Cc1ccc(-c2cc(C(F)(F)F)nn2-c2ccc(S(N)(=O)=O)cc2)cc1` [CXB, celecoxib] the “effect on cellular proliferation” value ([1]; free CXB, after 24 hours and 72 hours) was “able to impair cellular proliferation”, the IC50 ([1]; free CXB) was < 400 µM and the AUC0-last ([2]; celecoxib, i.p. mice, brain) was 36.7 µg·h/g. It also gave an AUCextrap ([2]; celecoxib, i.p. mice, brain) of 7.08%, an AUCinf ([2]; celecoxib, i.p. mice, brain) of 39.5 µg·h/g and an AUC0-last ([2]; celecoxib, i.p. mice, kidney) of 35.3 µg·h/g. It also gave an AUCextrap ([2]; celecoxib, i.p. mice, kidney) of 16.3%, an AUCinf ([2]; celecoxib, i.p. mice, kidney) of 42.2 µg·h/g and an AUC0-last ([2]; celecoxib, i.p. mice, liver) of 27.7 µg·h/g. The AUCextrap ([2]; celecoxib, i.p. mice, liver) was 30.4%, the AUCinf ([2]; celecoxib, i.p. mice, liver) was 39.8 µg·h/g and the AUCextrap ([2]; celecoxib, i.p. mice, plasma) was 13.0%. It also gave an AUC0-last [2, 7] of 28100 ng·h/mL, a Cmax [2, 7] of 9100 ng/mL and an AUC0-last ([2]; celecoxib, i.p. mice, spleen) of 73.2 µg·h/g. It also gave an AUCextrap ([2]; celecoxib, i.p. mice, spleen) of 42.0%, an AUCinf ([2]; celecoxib, i.p. mice, spleen) of 126.2 µg·h/g and a Cmax ([2]; mouse, brain, ip, 20 mg/kg, celecoxib, i.p. mice, brain, read-out: Cmax) of 20600 ng/g. For the same compound, the AUC(0-t) ([2]; mouse, ip, 20 mg/kg, plasma) was 28100 ng·h/mL, the MRT [2, 8] was 2 h and the Tmax [2, 8] was 1 h. It also gave a half-life [2, 8] of 1.4 h, an MRT [2, 9] of 3.05 h and a Tmax [2, 9] of 2 h. The half-life [2, 9] was 2 h, the MRT [2, 10] was 4.6 h and the Tmax [2, 10] was 0.5 h. It also gave a half-life [2, 10] of 2.8 h, an AUC(0-inf) [2, 11] of 32300 ng·h/mL and an MRT [2, 11] of 2.9 h. The Tmax [2, 11] was 1 h, the half-life [2, 11] was 1.9 h and the MRT [2, 12] was 6.47 h. It also gave a Tmax [2, 12] of 1 h, a half-life [2, 12] of 4.07 h and a Cmax ([2]; mouse, kidney, ip, 20 mg/kg, celecoxib, i.p. mice, kidney, read-out: Cmax) of 15600 ng/g. It also gave a Cmax ([2]; mouse, liver, ip, 20 mg/kg, celecoxib, i.p. mice, liver, read-out: Cmax) of 10600 ng/g, a Cmax ([2]; mouse, plasma, ip, 20 mg/kg, celecoxib, i.p. mice, plasma, read-out: Cmax) of 9090 ng/mL and a Cmax ([2]; mouse, spleen, ip, 20 mg/kg, celecoxib, i.p. mice, spleen, read-out: Cmax) of 22400 ng/g. For the same compound, the “mean survival time (MST)” value ([3]; i.p., no irradiation (CXB 5 mg/kg, nanoparticles 20 mg/kg)) was 48 days, the “% Tumor Growth Delay” value [3, 13] was 15 ± 5% and the “% Tumor Growth Inhibition” value [3, 13] was 13 ± 6%. For the same compound, the Median survival [3, 13] was 48 days, the “Survivals at 56 days” value [3, 13] was 1/6 and the “Survivals at 91 days” value [3, 13] was 0/6. For the same compound, the “inhibition of growth of GB cells in vivo” value ([3]; i.p., in words) was “the effect was not significant”, the MTD ([4]; ip, celecoxib in solution, i.p., read-out: dose above which toxicity was exhibited) was > 5 mg/kg and the “CK increase over saline group” value [5] was 1.17 fold.
In the case of `Cn1nnc2c(C(N)=O)ncn2c1=O` [TMZ, temozolomide], the IC50 ([1]; Homo sapiens, U-87 MG, free TMZ) is reported as 800 µM, the “animals that survived and prevented tumor recurrence” value ([3]; i.p. 30 mg/kg, out of 6 animals, 91 days) is reported as 4 and the “% Tumor Growth Delay” value [3, 13] is reported as 75 ± 21%. The “% Tumor Growth Inhibition” value [3, 13] was 66 ± 33%, the Median survival [3, 13] was 91 days and the “Survivals at 56 days” value [3, 13] was 6/6. The “Survivals at 91 days” value [3, 13] was 4/6, the “% Tumor Growth Delay” value [3, 14] was 75% and the “% Tumor Growth Inhibition” value [3, 14] was 66%. For the same compound, the “% Tumor Growth Delay” value ([3]; oral, 50 mg/kg) was 54 ± 11%, the “% Tumor Growth Inhibition” value ([3]; oral, 50 mg/kg) was 42 ± 14% and the Median survival ([3]; oral, 50 mg/kg) was 70 days. The “Survivals at 56 days” value ([3]; oral, 50 mg/kg) was 1/6, the “Survivals at 91 days” value ([3]; oral, 50 mg/kg) was 1/6 and the “animals that survived without tumor recurrence” value ([3]; oral, 50 mg/kg) was “only one animal survived”. For the same compound, the “mean survival time (MST)” value ([3]; oral, 50 mg/kg) was 70 days, the “% Tumor Growth Delay” value [3, 15] was 54% and the “% Tumor Growth Inhibition” value [3, 15] was 42%. The MTD ([4]; ip, i.p. administration, read-out: upper threshold dose tolerated by animals) was 30 mg/kg, the MTD ([4]; oral administration, read-out: upper threshold dose tolerated by animals) was 50 mg/kg and the “CK increase over saline group” value [5] was 1.32 fold. The “median OS” value ([6]; combination with radiotherapy vs. 12.1 months radiotherapy alone, P<0.001) was 14.6 months and the “median survival time in patients” value ([6]; comparative studies of several chemotherapeutic agents, in words) was “highest median survival time in patients”.
